Experimental data: US9895363B2, “Methods for modulating function of proliferating cell nuclear antigen (PCNA) and treating cancer with PCNA-targeting compounds” (University of Cincinnati, priority 2010, dated 2018)

Tests used:
Tumor Cells = assay: Growth inhibition, mean over tumor cell lines; assay type: cell-based; settings: mean over all tumor cell lines; read-out: IC50 Values, Tumor Cells, Mean ± SD
Experimental: (§1) Growth inhibitory effects of PCNA-I1 and PCNA-I2 were assessed in human cancer cell lines, mouse cancer cell lines, immortalized mouse cell lines, and human primary cell lines. Specifically, growth inhibitory effects of PCNA-I1 and PCNA-I2 were assessed using MTT staining in the following cells lines: 1) human cancer cell lines including LNCaP (androgen receptor […]), 22Rv1, DU-145, LAPC-4, and PC-3 (androgen receptor […]) prostate cancer cells; MCF-7 and T47D breast cancer cells; A375 and MDA-MB435 melanoma cells; 2) mouse cancer cell lines including TRAMP-C2RE3 prostate cancer cells, B16 and K1735 melanoma cells, UV2237 fibrosarcoma cells, and CT-26 colon cancer cells; 3) immortalized mouse lung cell lines and mouse endothelial cell lines; and 4) primary human cell lines including umbilical endothelial cells (HUVEC, PromoCell, Heidelberg, Germany), primary bone marrow mesenchymal stem cells (HuMSC, PromoCell), primary human mammary epithelial cells (HuBrEC, Lonza, Walkersville, Md.), primary human prostate epithelial cells (HuPrEC, Lonza), and primary mouse spleen lymphocytes (isolated in this laboratory), and primary mouse bone marrow stromal cells (isolated in this laboratory). […]
(§2) IC50 values were derived from growth inhibition curves. […] Inhibition of cell growth was calculated using the formula: growth inhibition (%)=(1−A570 of treated/A570 of control)×100. […]

A375 melanoma cells = assay: Growth inhibition by MTT staining, A375; assay type: cell-based; settings: A-375, 96 h, Human, treated four days
Experimental: as §1, §2

PC-3 cells = assay: Cell cycle distribution by flow cytometry, PC-3; assay type: cell-based, Human
Experimental: The effects of PCNA inhibitors on cell cycle progression were investigated via flow cytometry analysis. Specifically, PC-3 cells were plated into 60 mm plates at 2×10^5 cells/plate and were allowed to attach overnight.
The cells were rinsed with HBSS, detached by trypsinization, suspended in MEM-5% FBS, pelleted by centrifugation, resuspended in PI staining solution (PBS containing 50 μg/mL PI, 100 μg/mL RNase A, and 0.05% Triton X-100), and incubated for 45 min at 37° C. After washing with PBS, the cells were resuspended in PBS for flow cytometry analysis in an Epics-XL-MCL system (Beckman Coulter, Fullerton, Calif.). Thirty thousand cells at each time point were collected to determine their DNA content and to obtain flow cytometric fluorescence histograms (X-axis fluorescence, Y-axis cell number). The three fractions (G0/G1, G2/M and S) were quantified by using the Synchronization Wizard of ModFit LT Flow Cytometry Cell-cycle Analysis Softward (Verity Software House, Topsham, Me.).
Flow cytometry analysis was also performed on cells in which endogenous PCNA was knocked down with transfection of PCNA-specific siRNA. Specifically, PC-3 cells were plated into a 60-mm plate at 2×10^5/plate in antibiotics-free medium and transfected with 200 pmol PCNA specific siRNA or control scrambled siRNA for 24 H using Lifectamine 2000. The cells were then cultured in SFM for 24 H, followed by incubation in fresh SFM or stimulation with medium supplemented with 5% FBS, and sampled at different times for analyses. The PC-3 cells were also subjected to western blot analysis. Specifically, cells were washed and scraped into a lysis buffer (1% Triton X-100, 20 mM Tris-HCl, pH 8.0, 137 mM NaCl, 10% glycerol, 2 mM EDTA, 1 mM PMSF, and a protease inhibitor cocktail) and analyzed by Western blotting analysis as described by Zhang et al. in Tumor-infiltrating Macrophages are Involved in Suppressing Growth and Metastasis of Human Prostate Cancer Cells by INF-beta Gene Therapy in Nude Mice; Clin. Cancer Res. 2002; 8:29:2942-51. Samples were collected at 0 H (48 H after transfection), 24 H, 48 H, and 72 H, respectively.
Fluorescence-activated cell sorting (FACS) analysis was performed on both PC-3 cells and LNCaP cells using PCNA-I1. Specifically, cells were treated with 1 or 10 μM PCNA-I1 and sampled for the flow cytometry analysis at 24 H, 48 H, and 72 H. Expression of DNA damage and apoptosis-related proteins in PC-3 cells and LNCaP cells was also determined. Cisplatin, a well-known drug that induces DNA damage and apoptosis, was included in the experiment. LNCaP cells were treated for 6 H, 12 H, or 18 H with 10 μM PCNA-I1, 10 μM cisplatin, or both.

GFP-PCNA = GFP-PCNA chromatin association, fluorescence microscopy; assay type: cell-based, Human; settings: PC-3 transfected with pGFP-PCNA; 4 H, 0.5 μM PCNA-I1 or 2 μM PCNA-I2; FIG. 11
Experimental: Additionally, PC-3 cells were transfected for 24 H with pGFP-PCNA. The cells were then treated for 4 H with 0.5 μM of PCNA-I1 or 2 μM of PCNA-I2. The intact GFP-PCNA expressing cells were observed under a fluorescent microscope and recorded. After treatment with a buffer with 0.5% NP-40 buffer B, the cells were examined and recorded.

[1] = 1 μM, 5% FBS after serum starvation, FIGS. 4 and 5

## Cc1ccsc1C(=O)N/N=C/c1ccc2ccccc2c1O [PCNA-I1]
Tumor Cells
  IC50: 190 ± 90 nM
A375 melanoma cells
  IC50: 290 nM
PC-3 cells; 1 μM, 5% FBS after serum starvation, 24-72 H, FIGS. 4 and 5
  Cells in G1 phase: partially attenuated the serum-stimulated G1 decrease at 24 H but led to significant G1 reductions at 48 H and 72 H
PC-3 cells; [1]
  Cells in S phase: significantly increased at 24 H
  G2/M fraction of cells: increased steadily at 48 H and 72 H
PC-3 cells; 1 μM, FIG. 15
  Cell cycle effect, PC-3, 1 μM: cell growth arrest at S and G2/M phases
PC-3 cells; 10 μM, FIG. 15
  Cell cycle effect, PC-3, 10 μM: more significant G1 arrest
PC-3 cells; 1 or 10 μM, 24, 48, 72 H
  Apoptosis, PC-3: Apoptosis was not observed
GFP-PCNA
  Level of chromatin-associated GFP-PCNA: reduced the level of chromatin-associated GFP-PCNA
  Total intensity of GFP-PCNA: did not significantly alter the total intensity of GFP-PCNA
